By melting point is commonly meant the temperature, or range, at which the solid turns liquid.

SMILES strings stand for the structures. Like-named read-outs stand apart in the source and are kept apart here.

Results on 14 molecules are retold here after patent US7491819B1 (priority 2004, dated 2009).

The target in one data set is T1, HIV-integrase (Human immunodeficiency virus type 1 group M subtype B, UniProt P12497).
T1 construct: Recombinant integrase (0.26 ng) was incubated with the beads
Nature of the data set: HIV-Integrase Inhibition Activity (SPA bead strand-transfer assay). In kind it is biochemical. The essentials:
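Biotin-labelled substrate DNA (5 pmole) bound to streptavidin SPA beads, preloaded with recombinant integrase (0.26 ng) for 90 min at 37° C, then washed. Inhibitors and 0.1 fmol P33-labelled target DNA added; reaction stopped with 10 mM EDTA. Integration read as scintillation CPM.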

A further data set concerns NL-Rluc virus. Nature of the data set: Inhibition of HIV replication (recombinant NL-Rluc virus, luciferase). In kind it is cell-based. Conditions: Human immunodeficiency virus 1, read-out: Inhibition of HIV replication.
Where [1] appears, read: Table 1, read-out: Activity (HIV-integrase inhibition, IC50 class).
Where [2] appears, read: Table 2a, read-out: HIV-Integrase Inhibition Activity.

Consider `COc1ncccc1-c1cc(F)ccc1CNC(=O)c1nc2n(c(=O)c1O)CCOC2(C)C` [Example 76, Pyrimido[2,1-c][1,4]oxazine-2-carboxamide, N-[[4-fluoro-2-(2-methoxy-3-pyridinyl)phenyl]methyl]-4,6,7,9-tetrahydro-3-hydroxy-9,9-dimethyl-4-oxo-], for which the melting point is 227 °C. Also, the IC50 at HIV-integrase (setting [1]) lay in the range of 2 to 100 nM.

In the case of `O=C(NCc1ccc(F)cc1)c1nc2n(c(=O)c1O)CCOC2` [Example 1, Pyrimido[2,1-c][1,4]oxazine-2-carboxamide, N-[(4-fluorophenyl)methyl]-4,6,7,9-tetrahydro-3-hydroxy-4-oxo-], the melting point came out at 211 °C. Besides, on HIV-integrase (setting [1]), the IC50 fell in the range of 2 to 100 nM.

Consider `CC1OCCn2c1nc(C(=O)NCc1ccc(F)cc1)c(O)c2=O` (centres unmarked) [Example 4, Pyrimido[2,1-c][1,4]oxazine-2-carboxamide, N-[(4-fluorophenyl)methyl]-4,6,7,9-tetrahydro-3-hydroxy-9-methyl-4-oxo-], for which the melting point fell in the range of 165 to 167 °C. For the same molecule, on HIV-integrase (setting [1]), the IC50 fell in the range of 2 to 100 nM.

On to `Cn1ccc(-c2cc(F)ccc2CNC(=O)c2nc3n(c(=O)c2O)CCOC3(C)C)n1` [Example 286, Pyrimido[2,1-c][1,4]oxazine-2-carboxamide, N-[[4-fluoro-2-(1-methyl-1H-pyrazol-3-yl)phenyl]methyl]-4,6,7,9-tetrahydro-3-hydroxy-9,9-dimethyl-4-oxo-], for which the melting point stood at 220 °C. Also, the IC50 on HIV-integrase (setting [2]) was in the range of 2 to 100 nM. Besides, the EC50 with NL-Rluc virus lay within 3 to 100 nM.

For the molecule `CCC1OCCn2c1nc(C(=O)NCc1ccc(F)cc1-n1cnc(C)n1)c(O)c2=O` (centres unmarked) [Example 284, Pyrimido[2,1-c][1,4]oxazine-2-carboxamide, 9-ethyl-N-[[4-fluoro-2-(3-methyl-1H-1,2,4-triazol-1-yl)phenyl]methyl]-4,6,7,9-tetrahydro-3-hydroxy-4-oxo-e], the melting point turned out to be 213 °C. For the same molecule, the IC50 on HIV-integrase (setting [2]) lay in the range of 2 to 100 nM. The EC50 with NL-Rluc virus was in the range of 3 to 100 nM.

As for `Cc1ncn(-c2ccccc2CNC(=O)c2nc3n(c(=O)c2O)CCOC3(C)C)n1` [Example 288, Pyrimido[2,1-c][1,4]oxazine-2-carboxamide, 4,6,7,9-tetrahydro-3-hydroxy-9,9-dimethyl-N-[[2-(3-methyl-1H-1,2,4-triazol-1-yl)phenyl]methyl]-4-oxo-e], the melting point was 234 °C (dec.). Moreover, on HIV-integrase (setting [2]), the IC50 was in the range of 2 to 100 nM. Also, in the data set on NL-Rluc virus, the EC50 lay in the range of 3 to 100 nM.

As to `CCOP(=O)(OCC)c1cc(F)ccc1CNC(=O)c1nc2n(c(=O)c1O)CCOC2(C)C` [Example 213, Phosphonic acid, [5-fluoro-2-[[[(4,6,7,9-tetrahydro-3-hydroxy-9,9-dimethyl-4-oxopyrimido[2,1-c][1,4]oxazin-2-yl)carbonyl]amino]methyl]phenyl]-, diethyl ester], the melting point was 124 °C. Further, the IC50 on HIV-integrase (setting [1]) is 2 to 100 nM.

`CC1OCCn2c1nc(C(=O)NCc1ccc(F)c(Cl)c1)c(O)c2=O` (centres unmarked) [Example 7, Pyrimido[2,1-c][1,4]oxazine-2-carboxamide, N-[(3-chloro-4-fluorophenyl)methyl]-4,6,7,9-tetrahydro-3-hydroxy-9-methyl-4-oxo-] showed a melting point of 172 °C. Besides, the IC50 at HIV-integrase (setting [1]) lay within 2 to 100 nM.

With `Cn1nccc1-c1cc(F)ccc1CNC(=O)c1nc2n(c(=O)c1O)CCOC2(C)C` [Example 287, Pyrimido[2,1-c][1,4]oxazine-2-carboxamide, N-[[4-fluoro-2-(1-methyl-1H-pyrazol-5-yl)phenyl]methyl]-4,6,7,9-tetrahydro-3-hydroxy-9,9-dimethyl-4-oxo-], the melting point was 221 °C. For the same molecule, at HIV-integrase (setting [2]), the IC50 is 2 to 100 nM. The EC50 in the data set with NL-Rluc virus was in the range of 3 to 100 nM.

Regarding `CC1OCCn2c1nc(C(=O)NCc1ccc(Cl)c(Cl)c1)c(O)c2=O` (centres unmarked) [Example 6, Pyrimido[2,1-c][1,4]oxazine-2-carboxamide, N-[(3,4-dichlorophenyl)methyl]-4,6,7,9-tetrahydro-3-hydroxy-9-methyl-4-oxo-], the melting point worked out at 192 °C. At HIV-integrase (setting [1]), the IC50 lay in the range of 2 to 100 nM.

Turning to `Cc1cc(CNC(=O)c2nc3n(c(=O)c2O)CCOC3C)ccc1F` (centres unmarked) [Example 5, Pyrimido[2,1-c][1,4]oxazine-2-carboxamide, N-[(4-fluoro-3-methylphenyl)methyl]-4,6,7,9-tetrahydro-3-hydroxy-9-methyl-4-oxo-], the melting point came out at 134 °C. The IC50 at HIV-integrase (setting [1]) is 2 to 100 nM.

Turning to `CC1(C)OCCn2c1nc(C(=O)NCc1ccc(F)cc1P(=O)(O)OCCO)c(O)c2=O` [Example 292, Phosphonic acid, [5-fluoro-2-[[[(4,6,7,9-tetrahydro-3-hydroxy-9,9-dimethyl-4-oxopyrimido[2,1-c][1,4]oxazin-2-yl)carbonyl]amino]methyl]phenyl]-, mono(2-hydroxyethyl) ester], the IC50 on HIV-integrase (setting [2]) was in the range of 2 to 100 nM. Further, in the data set with NL-Rluc virus, the EC50 is more than 1000 nM.

`CC1(C)OCCn2c1nc(C(=O)NCc1ccc(F)cc1-n1cccn1)c(O)c2=O` [Example 306, Pyrimido[2,1-c][1,4]oxazine-2-carboxamide, N-[[4-fluoro-2-(1H-pyrazol-1-yl)phenyl]methyl]-4,6,7,9-tetrahydro-3-hydroxy-9,9-dimethyl-4-oxo-]: the IC50 on HIV-integrase (setting [2]) is 2 to 100 nM. In the data set on NL-Rluc virus, the EC50 is 3 to 100 nM.

`Cc1cc(CNC(=O)c2nc3n(c(=O)c2O)CCOC3)ccc1F` [Example 2, Pyrimido[2,1-c[]1,4]oxazine-2-carboxamide, N-[(4-fluoro-3-methylphenyl)methyl]-4,6,7,9-tetrahydro-3-hydroxy-4-oxo-] displayed a melting point of 206 to 208 °C. The IC50 at HIV-integrase (setting [1]) fell in the range of 2 to 100 nM.
